Experimental data published in patent US20120015090A1, “READILY WATER-SOLUBLE MYRICITRIN COMPOSITION” (SAN-EI GEN F.F.I., INC., priority 2009, published 2012).

What was measured:
Format in all cases: physicochemical
[1] = Evaluation of MY composition solubility in water (Experiment Example 1)
Experimental: The MY and γ-CD were used in the proportions (mole ratios) presented in Table 1, and […] different powdery MY compositions (Samples 1 to 22) were prepared according to the method of Example 1.
The powdery MY composition (Samples 1 to 22) or a control MY (MY itself) was added to water (20 ml) in a 100-ml Erlenmeyer flask while stirring. The samples were added until they could not be dissolved further, and formed deposits. Each solution was shaken (Bio-Shaker BR-3000LF, 160 rpm, amplitude=40 mm, Taitec Co., Ltd.) at 25° C. for 40 hours, and centrifuged at 9,000 rpm for 10 min to collect the supernatant. The supernatant was appropriately diluted with a 0.1% phosphoric acid aqueous solution, and absorbance (346 nm) was measured.
1) MY (50 mg) was accurately weighed, and dissolved in methanol to make the volume precisely 100 ml. 2) The solution was appropriately diluted with a 0.1% phosphoric acid aqueous solution to prepare MY solutions of 0.0001, 0.0005, 0.001, 0.005, and 0.01 mg/ml concentrations. 3) The absorbance of the standard solution at a wavelength of maximum absorption was measured with a spectrophotometer. 4) A standard curve was created based on the content of MY in the MY solution, and the measured absorbance value.

[2] = Evaluation of water solubility with α- and β-cyclodextrins (Reference Experiment Example)
Experimental: Evaluation of Water Solubility with α- and β-Cyclodextrins Instead of γ-CD, α-cyclodextrin (α-CD) and β-cyclodextrin (β-CD) (both from Nihon Shokuhin Kako Co., Ltd.) were used to prepare MY inclusions, and the solubility of the compositions in water was evaluated.
Specifically, an MY composition containing 3 moles of α-CD (Reference Sample 1), or an MY composition containing 3 moles of β-CD (Reference Sample 2) per mole of MY were prepared according to the method of Example 1, and the solubility of each composition in water was determined as an MY solubility (mg/ml) according to the method of Experiment Example 1. The solubility (mg/ml) of the MY itself was also determined as a control, and the solubility (fold) was calculated from the relative ratio of the two.

[3] = Evaluation of the solubility of other flavonoids in water (Experiment Example 2)
Experimental: The solubility (mg/ml) of each composition in water in terms of the flavonoid was then determined according to the method of Experiment Example 1. The solubility (mg/ml) of the flavonoid itself in water was also determined as a control, and the solubility (fold) was calculated from the relative ratio of the two.

[4] = Evaluation of preservation stability, presence or absence of deposits in acid and sugar solutions (Experiment Example 3); design: key: +: the presence of deposits; −: the absence of deposits; x: no dissolution in the acid and sugar solution; settings: 210 days
Experimental: MY and γ-CD were used in the 1:1 proportion (mole ratio) to prepare a powder composition (sample 1) according to the method of Example 1. […] Each solution was hot-packed in a 100-ml glass vial (93° C.). The drinks so prepared were allowed to cool, and placed under 50° C., room temperature (25±2° C.), and low-temperature (5° C.) conditions for 210 days. The presence or absence of deposits was then checked by visual inspection. […] The drinks so prepared were allowed to cool, and placed under 50° C., room temperature (25±2° C.), and low-temperature (5° C.) conditions for 210 days. The presence or absence of deposits was then observed. In the table, the symbol “+” means the presence of deposits, and “−” the absence of deposits. The symbol “x” means no dissolution in the acid and sugar solution.

C[C@H]1O[C@@H](Oc2c(-c3cc(O)c(O)c(O)c3)oc3cc(O)cc(O)c3c2=O)[C@@H](O)[C@@H](O)[C@@H]1O [MY, myricitrin]
Solubility (fold) ([1]; relative to solubility of MY itself (non-inclusion) = 1, 25° C., 40 hours): 1 fold
Solubility (in terms of myricitrin, mg/ml) ([1]; shaken at 25° C. for 40 hours, MY:γ-CD = 1:X per sample): 0.12 mg/mL
Solubility (fold) ([2]; relative to MY alone = 1): 1 fold
Solubility (in terms of myricitrin, mg/ml) ([2]; water, method of Experiment Example 1, MY:CD = 1:3 mole ratio): 0.10 mg/mL
Solubility (fold) (in terms of flavonoids) ([3]; Flavonoid:γ-CD = 1:0 (mole ratio), flavonoid itself, reference): 1 fold
Solubility (fold) (in terms of flavonoids) ([3]; Flavonoid:γ-CD = 1:1 (mole ratio)): 157.8 fold
Solubility (fold) (in terms of flavonoids) ([3]; Flavonoid:γ-CD = 1:3 (mole ratio)): 256.2 fold
Solubility (fold) (in terms of flavonoids) ([3]; Flavonoid:γ-CD = 1:5 (mole ratio)): 187.4 fold
Solubility (fold) (in terms of flavonoids) ([3]; Flavonoid:γ-CD = 1:10 (mole ratio)): 49.3 fold
Solubility (fold) (in terms of flavonoids) ([3]; Flavonoid:γ-CD = 1:15 (mole ratio)): 59.9 fold
Solubility (fold) (in terms of flavonoids) ([3]; Flavonoid:γ-CD = 1:20 (mole ratio)): 46.3 fold
presence or absence of deposits ([4]; pH 3, 50° C., flavonoid concentration 0.05%): +
presence or absence of deposits ([4]; pH 3, 50° C., flavonoid concentration 0.10%): +
presence or absence of deposits ([4]; pH 3, refrigerated (5° C.), flavonoid concentration 0.05%): +
presence or absence of deposits ([4]; pH 3, refrigerated (5° C.), flavonoid concentration 0.10%): +
presence or absence of deposits ([4]; pH 3, room temperature, flavonoid concentration 0.05%): +
presence or absence of deposits ([4]; pH 3, room temperature, flavonoid concentration 0.10%): +
presence or absence of deposits ([4]; pH 6, 50° C., flavonoid concentration 0.05%): −
presence or absence of deposits ([4]; pH 6, 50° C., flavonoid concentration 0.10%): −
presence or absence of deposits ([4]; pH 6, refrigerated (5° C.), flavonoid concentration 0.05%): +
presence or absence of deposits ([4]; pH 6, refrigerated (5° C.), flavonoid concentration 0.10%): +
presence or absence of deposits ([4]; pH 6, room temperature, flavonoid concentration 0.05%): +
presence or absence of deposits ([4]; pH 6, room temperature, flavonoid concentration 0.10%): +
presence or absence of deposits ([4]; pH 9, 50° C., flavonoid concentration 0.05%): −
presence or absence of deposits ([4]; pH 9, 50° C., flavonoid concentration 0.10%): −
presence or absence of deposits ([4]; pH 9, refrigerated (5° C.), flavonoid concentration 0.05%): −
presence or absence of deposits ([4]; pH 9, refrigerated (5° C.), flavonoid concentration 0.10%): −
presence or absence of deposits ([4]; pH 9, room temperature, flavonoid concentration 0.05%): −
presence or absence of deposits ([4]; pH 9, room temperature, flavonoid concentration 0.10%): −
